PubChem BioAssay (NCI)
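Following 48 hours of exposure in 96-well plates, responses at five concentrations were used to interpolate endpoints linearly. TGI: total growth inhibition.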

Tests used:
Assay in all cases: inhibition of tumour cell growth, NCI panel, 48 h
[1] = test system: 786-0 renal
[2] = test system: A498 renal
[3] = test system: BT-549 breast
[4] = test system: EKVX NSCLC
[5] = test system: K-562 leukemia
[6] = test system: MALME-3M melanoma
[7] = test system: SF-295 CNS
[8] = test system: HT29 colon
[9] = test system: SF-539 CNS
[10] = test system: T-47D breast

Row | SMILES | TGI [1] | TGI [2] | TGI [3] | TGI [4] | TGI [5] | TGI [6] | TGI [7] | TGI [8] | TGI [9] | TGI [10]
1 | CC(=O)OCC(OC(C)=O)C1C[C@H]2O[C@@H]3[C@H](C[C@H]2O1)O[C@@]1(C[C@@H]3C)C[C@H](C)[C@@H]2O[C@]3(C[C@@H]2O1)C[C@H]1O[C@H]2[C@H](C)[C@H]4OC(=O)CC5CC[C@H]6OC7[C@H]8O[C@]9(CC[C@H]%10CC(O)(CO)[C@H](CC[C@H]%11C[C@@H](C)C(O)(CO)C(C[C@@H]4O[C@H]2C[C@H]1O3)O%11)O%10)CC8O[C@@H]7[C@@H](O9)[C@H]6O5 (stereo partly drawn) | > 1 µM | > 1 µM | 0.00923 µM | > 1 µM | > 1 µM | > 1 µM | > 0.301 µM |  |  | 
2 | Brc1cc2nn(-c3ccccc3)nc2c2nonc12 | > 100 µM |  | > 100 µM | > 100 µM | > 100 µM | > 100 µM | > 100 µM | > 100 µM | > 100 µM | > 100 µM
3 | Brc1cccc(N=NN2CCCC2)c1 | > 100 µM | > 100 µM | > 100 µM | > 100 µM | > 100 µM |  | > 100 µM |  | > 100 µM | > 100 µM
4 | COc1ccc2cc(NC(=O)N/N=C\c3ccc(Cl)cc3)ccc2c1 | > 100 µM |  | > 100 µM | > 100 µM | > 100 µM | > 100 µM | > 100 µM | > 100 µM | > 100 µM | 
5 | Cc1cccc(C)c1NC(=O)C(=O)C1C(=O)NC(=O)NC1=O | > 100 µM | > 100 µM |  | > 100 µM | > 100 µM | > 100 µM | > 100 µM | > 100 µM | > 100 µM | 
6 | CCC(=O)Oc1c2ccsc2c(OC(=O)CC)c2ccsc12 | 4.33 µM | 15 µM | 0.361 µM | 2.51 µM |  | 0.14 µM | 0.675 µM | 5.56 µM | 0.472 µM | 3.88 µM
7 | O=C1NC2OC(CO)C(O)C(O1)C2O (stereo not drawn) | > 100 µM | > 100 µM |  | > 100 µM | > 100 µM | > 100 µM | > 100 µM | > 100 µM | > 100 µM | 
8 | Cc1cc2ncc3c(=O)n(NS(=O)(=O)c4ccc(N)cc4)ccc3n2n1 | > 100 µM | > 100 µM | > 100 µM | > 100 µM |  | > 100 µM | > 100 µM | > 100 µM | > 100 µM | > 100 µM
9 | COc1ccc2c(c1)CN1C(=N2)CSC1c1ccccc1Cl (stereo not drawn) | 34.5 µM |  | 80.3 µM | 35.4 µM | 30.5 µM | 47.9 µM | 75.6 µM | 32.8 µM | 32.1 µM | > 100 µM
10 | O=C(CC1=NCCN1)c1ccccc1 |  | > 75 µM |  | > 750 µM | > 750 µM | > 750 µM | > 750 µM | > 750 µM | > 750 µM | 
11 | CC(C)(C)C1CCC2(CC1)c1[nH]c3ccccc3c1C1(CCC(C(C)(C)C)CC1)c1[nH]c3ccccc3c12 (stereo not drawn) | > 100 µM | > 100 µM |  | > 100 µM | > 100 µM | > 100 µM | > 100 µM | > 100 µM | > 100 µM | 
12 | O=C1C=CC(=O)c2c(O)c(NCCc3ccc(O)cc3)c(Cl)c(O)c21 | > 10 µM |  | > 10 µM | > 10 µM | > 10 µM | > 10 µM | > 10 µM | > 10 µM | > 10 µM | > 10 µM
13 | NC1CNC(=O)c2c(Cl)sc(Cl)c21 (stereo not drawn) | > 100 µM | > 100 µM |  | > 100 µM | > 100 µM | > 100 µM | > 100 µM | > 100 µM | > 100 µM | > 100 µM
14 | Cc1cn(C(C)OCCN2C(=O)c3ccccc3C2=O)c(=O)[nH]c1=O (stereo not drawn) | > 100 µM | > 100 µM | > 100 µM | > 100 µM | > 100 µM |  | > 100 µM | > 100 µM | > 100 µM | > 100 µM
15 | O=c1[nH]nc(-c2ccccc2)c2[nH]c(-c3ccccc3)cc12 | > 100 µM |  | > 100 µM | > 100 µM | > 100 µM | > 100 µM | > 100 µM | > 100 µM |  | > 100 µM
16 | CCOC(=O)C1=C(OC(OCC)C(CC)[Se]c2ccccc2)CCCC1 (stereo not drawn) | 28.9 µM | > 100 µM |  | 78.9 µM | > 100 µM | 97.7 µM | 55.6 µM | 62 µM | 35.4 µM | 
17 | Nc1ccc(S(=O)(=O)Nc2nc3ccccc3nc2N2CCCCC2)cc1 | > 100 µM |  | > 100 µM | > 100 µM | > 100 µM | > 100 µM | > 100 µM | > 100 µM | > 100 µM | > 100 µM
18 | NC(=O)c1cc2ccccc2o/c1=N/O | > 100 µM |  | > 100 µM | > 100 µM | > 100 µM |  | > 100 µM | > 100 µM | > 100 µM | > 100 µM
19 | COC1(OC)CCCCC2c3cccc(OC(C)=O)c3C21OC(C)=O (stereo not drawn) | > 100 µM |  |  | > 100 µM | > 100 µM | > 100 µM | > 100 µM | > 100 µM | > 100 µM | 
20 | O=C1C=C(c2ccccc2)O/C1=C/C(=O)c1ccc(Cl)cc1 | 29.9 µM | 75.4 µM | 30.1 µM | > 100 µM | 33.7 µM | 36 µM |  | 36.5 µM | 43.4 µM | 
21 | CSc1nc2c(c(=O)n1C)N=C(c1ccccc1)[C@H](C(CC(=O)c1ccccc1)c1ccccc1)C(c1ccccc1)N2 (stereo partly drawn) | > 100 µM | > 100 µM | > 100 µM | > 100 µM | > 100 µM | > 100 µM | > 100 µM | > 100 µM | > 100 µM | 
22 | COc1c(C)c2nc3ccccc3[nH]c2c2c(=O)ccnc12 | > 100 µM | > 100 µM |  | > 100 µM | > 100 µM | > 100 µM | > 100 µM | > 100 µM | > 100 µM | > 100 µM
